Source: patent US20220184093A1, “ANTI-VIRAL ACTIVITY OF VPS34 INHIBITORS” (priority 2020, published 2022)

What was measured:
[1] = test system: coronavirus USA_WA1/2020 SARS CoV-2; assay: SARS CoV-2 CPE assay for antiviral activity (Vero E6 host cells, Cell Titer-Glo); type: cell-based; conditions: Vero C1008, 10-point dose response, high concentration 15 μM, 72 hours, read-out: IC50 for inhibition of SARS CoV-2 mediated cell killing
SARS-CoV-2 = assay: microbe, parasite or virus in culture; type: cell-based; conditions: Severe acute respiratory syndrome coronavirus 2, A549, 48 h; read-out: IC50 for inhibition of SARS CoV-2 mediated cell killing
in vitro [2] = conditions: African green monkey
in vitro [3] = conditions: human

SMILES	IC50 [1]	IC50 (SARS-CoV-2)	CC50 (in vitro [2])	CC50 (in vitro [3])
C[C@@H]1COCCN1c1cc(N2CCN(S(=O)(=O)c3cncc(F)c3)CC2C(F)(F)F)[nH]c(=O)c1 (stereo partly shown) [Compound 2]	0.409 µM	0.12 µM	> 10 µM	> 10 µM
C[C@@H]1COCCN1c1cc(N2CCN(S(=O)(=O)N3CCCC3)CC2C(F)(F)F)[nH]c(=O)c1 (stereo partly shown) [Compound 1]	0.9 µM	0.16 µM	29 µM	24 µM
C[C@@H]1COCCN1c1cc(N2CCN(S(=O)(=O)N(C)C)CC2C(F)(F)F)[nH]c(=O)c1 (stereo partly shown) [Compound 4]	1.12 µM	0.369 µM	> 10 µM	> 10 µM
C[C@@H]1COCCN1c1cc(N2CCN(S(=O)(=O)Cc3ccc(F)cc3)CC2C(F)(F)F)[nH]c(=O)c1 (stereo partly shown) [Compound 3]	0.224 µM	0.039 µM	> 10 µM	5160 µM
